ChEMBL document CHEMBL1201862, “PubChem BioAssay data set” (2004)
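96-well plates; 48 h exposure; 5 concentrations. Endpoints by linear interpolation between flanking doses. Not reached: highest tested concentration assigned. Abbreviation: GI50, concentration required for 50% inhibition of growth.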 Calls of active or inactive are those of the source. No stated cut-off is given here; in the data, active = GI50 up to about 1.1 µM and inactive = higher.

Columns and labels:
Assay in all cases: NCI tumour cell line growth inhibition, 48 h
IGROV-1 = system: IGROV-1
HCT-15 = system: HCT-15
NCI-H460 = system: NCI-H460
HT-29 = system: HT-29
Malme-3M = system: Malme-3M
PC-3 = system: PC-3
HCT-116 = system: HCT-116
M14 = system: M14
SW-620 = system: SW-620
A498 = system: A498
OVCAR-8 = system: OVCAR-8
CCRF-CEM = system: CCRF-CEM
MDA-MB-231 = system: MDA-MB-231
NCI-H226 = system: NCI-H226
MDA-MB-435 = system: MDA-MB-435
U-251 = system: U-251
KM12 = system: KM12
HOP-92 = system: HOP-92
SF-295 = system: SF-295
Hs-578T = system: Hs-578T

SMILES | GI50 (IGROV-1) | GI50 (HCT-15) | GI50 (NCI-H460) | GI50 (HT-29) | GI50 (Malme-3M) | GI50 (PC-3) | GI50 (HCT-116) | GI50 (M14) | GI50 (SW-620) | GI50 (A498) | GI50 (OVCAR-8) | GI50 (CCRF-CEM) | GI50 (MDA-MB-231) | GI50 (NCI-H226) | GI50 (MDA-MB-435) | GI50 (U-251) | GI50 (KM12) | GI50 (HOP-92) | GI50 (SF-295) | GI50 (Hs-578T)
Cc1cccc(/N=N/C(=O)NNc2cccc(C)c2C)c1C | 23.9 µM (inactive) | 38.5 µM | 38.5 µM (inactive) | 56.9 µM (inactive) | 21.7 µM (inactive) | 31.5 µM (inactive) | 29.4 µM (inactive) | 41.8 µM (inactive) | 34 µM (inactive) | 34 µM (inactive) | 33.3 µM (inactive) | > 10 µM (inactive) | 47.5 µM (inactive) | 38.8 µM (inactive) | 26.1 µM (inactive) | 35.8 µM (inactive) | – | – | – | –
CCN1CCC(O)(c2ccccc2)C(C(=O)c2ccccc2)C1 (configuration not stated) | > 100 µM (inactive) | 26.9 µM | > 100 µM (inactive) | 20.4 µM (inactive) | 21.1 µM (inactive) | – | 17.1 µM (inactive) | 17.3 µM (inactive) | 17.6 µM (inactive) | > 100 µM (inactive) | 26.4 µM (inactive) | 15.7 µM (inactive) | – | > 54.1 µM (inactive) | – | > 100 µM (inactive) | 45.4 µM (inactive) | 17.7 µM (inactive) | > 65.6 µM (inactive) | –
Cc1ccc(/C=N/Nc2cc(C)c3cccc(C)c3n2)s1 | 2.61 µM (inactive) | 3.73 µM | – | 2.86 µM (inactive) | 15.1 µM (inactive) | 8.2 µM (inactive) | 2.82 µM (inactive) | 4.33 µM (inactive) | 8.15 µM (inactive) | – | 10.4 µM (inactive) | 4.43 µM (inactive) | > 10 µM (inactive) | 9.02 µM (inactive) | 7.14 µM (inactive) | 10.6 µM (inactive) | 7.31 µM (inactive) | 6.4 µM (inactive) | 7.1 µM (inactive) | 13.9 µM (inactive)
[O-][S+](Cc1ccccc1)c1ccccc1Cn1cccc1 (configuration not stated) | > 100 µM (inactive) | > 100 µM | > 100 µM (inactive) | > 100 µM (inactive) | > 100 µM (inactive) | > 100 µM (inactive) | > 100 µM (inactive) | > 100 µM (inactive) | > 100 µM (inactive) | – | – | > 100 µM (inactive) | > 100 µM (inactive) | – | 42.6 µM (inactive) | > 100 µM (inactive) | > 100 µM (inactive) | 96.6 µM (inactive) | 60.4 µM (inactive) | > 100 µM (inactive)
COc1ccc2c(c1)CC1(O)COc3cc(OC)ccc3C1O2 (configuration not stated) | > 100 µM (inactive) | 96.2 µM | – | > 100 µM (inactive) | > 100 µM (inactive) | > 100 µM (inactive) | > 100 µM (inactive) | > 100 µM (inactive) | 95.1 µM (inactive) | > 100 µM (inactive) | > 100 µM (inactive) | > 100 µM (inactive) | > 100 µM (inactive) | > 100 µM (inactive) | > 100 µM (inactive) | 91.6 µM (inactive) | > 100 µM (inactive) | > 100 µM (inactive) | > 100 µM (inactive) | –
CCCC(=O)OC1C(CO)OC(n2cc(F)c(=O)[nH]c2=O)C1F (configuration not stated) | 95.7 µM (inactive) | > 100 µM | – | 55.2 µM (inactive) | 42.6 µM (inactive) | 92.3 µM (inactive) | 22.3 µM (inactive) | – | > 100 µM (inactive) | 5.68 µM (inactive) | 72.1 µM (inactive) | 3.91 µM (inactive) | – | > 100 µM (inactive) | 59.4 µM (inactive) | 7.45 µM (inactive) | > 100 µM (inactive) | > 100 µM (inactive) | 82 µM (inactive) | 53.7 µM (inactive)
O=C(CC(C(=O)c1cccs1)c1ccsc1)c1ccccc1 (configuration not stated) | > 100 µM (inactive) | 48.1 µM | 51.4 µM (inactive) | > 100 µM (inactive) | – | – | 38.3 µM (inactive) | 34.9 µM (inactive) | > 100 µM (inactive) | 51.8 µM (inactive) | > 100 µM (inactive) | > 100 µM (inactive) | 17.5 µM (inactive) | > 100 µM (inactive) | 31.4 µM (inactive) | > 100 µM (inactive) | 38.9 µM (inactive) | > 100 µM (inactive) | > 100 µM (inactive) | > 100 µM (inactive)
CN(C(=S)Cc1ccc(Cl)c(Cl)c1)C1CCCC[C@@H]1N1CCCC1 (some centres not stated) | < 0.01 µM (active) | 58.1 µM | – | 16.7 µM (inactive) | – | 31.4 µM (inactive) | 48.1 µM (inactive) | 18.2 µM (inactive) | 20.1 µM (inactive) | 13 µM (inactive) | – | – | 34.4 µM (inactive) | 46.6 µM (inactive) | 26.6 µM (inactive) | 29.9 µM (inactive) | 44.6 µM (inactive) | – | 17.1 µM (inactive) | –
CCCCCCCCCCCCCC1CCC(CC)N1 (configuration not stated) | 20.9 µM (inactive) | 6.52 µM | 2.12 µM (inactive) | 5.81 µM (inactive) | 18.4 µM (inactive) | – | 15.6 µM (inactive) | 17.9 µM (inactive) | 15.9 µM (inactive) | 21.4 µM (inactive) | 20 µM (inactive) | 5.2 µM (inactive) | – | 15.3 µM (inactive) | – | 7.41 µM (inactive) | 17.2 µM (inactive) | 16.2 µM (inactive) | 18.6 µM (inactive) | –
CC(=O)C1=CC=C/C1=N\Nc1ccccc1 | 7.4 µM (inactive) | 5.14 µM | 11.6 µM (inactive) | 3.83 µM (inactive) | 14.6 µM (inactive) | 5.45 µM (inactive) | 4.99 µM (inactive) | 10.8 µM (inactive) | 3.82 µM (inactive) | – | 9.73 µM (inactive) | 2.94 µM (inactive) | 10 µM (inactive) | 17.3 µM (inactive) | 13.1 µM (inactive) | 2.97 µM (inactive) | 4.38 µM (inactive) | 11.7 µM (inactive) | 11.8 µM (inactive) | 4.48 µM (inactive)
COc1ccc2c(c1O)[C@@]13C=C(O)C(=O)C=C1[C@@H](C2)N(C)CC3 | 61.1 µM (inactive) | 68.7 µM | 63.4 µM (inactive) | 31.6 µM (inactive) | 72.6 µM (inactive) | 34.8 µM (inactive) | 34.1 µM (inactive) | 62.2 µM (inactive) | – | – | 51.9 µM (inactive) | 43.8 µM (inactive) | > 100 µM (inactive) | 56.9 µM (inactive) | 40.6 µM (inactive) | 86.1 µM (inactive) | 52.1 µM (inactive) | 53.2 µM (inactive) | > 100 µM (inactive) | 59.3 µM (inactive)
O=C1N[C@H](C(=O)O)[C@@H](c2ccc(OCc3ccccc3)cc2)O1 | 20.9 µM (inactive) | 41.8 µM | – | > 100 µM (inactive) | > 100 µM (inactive) | > 100 µM (inactive) | 31.7 µM (inactive) | > 100 µM (inactive) | > 100 µM (inactive) | – | 20.7 µM (inactive) | > 100 µM (inactive) | 23.2 µM (inactive) | 24.9 µM (inactive) | > 100 µM (inactive) | 27.9 µM (inactive) | > 100 µM (inactive) | – | 26.1 µM (inactive) | 27.5 µM (inactive)
CCOC(=O)C(CNc1ccc(O)cc1)NC(=O)c1ccccc1 (configuration not stated) | > 100 µM (inactive) | > 100 µM | > 100 µM (inactive) | > 100 µM (inactive) | > 100 µM (inactive) | – | > 100 µM (inactive) | > 66.4 µM (inactive) | > 100 µM (inactive) | > 100 µM (inactive) | > 100 µM (inactive) | 32.3 µM (inactive) | – | > 100 µM (inactive) | – | > 100 µM (inactive) | > 100 µM (inactive) | > 100 µM (inactive) | > 100 µM (inactive) | –
Cc1ccc(S(=O)(=O)NC2C(=O)c3ccccc3C(=O)C2n2cnc3ccccc32)cc1 (configuration not stated) | 16.8 µM (inactive) | 25.6 µM | 19.5 µM (inactive) | 28.1 µM (inactive) | 0.214 µM (active) | 21.2 µM (inactive) | 27.4 µM (inactive) | 25.3 µM (inactive) | 25.3 µM (inactive) | – | 29.4 µM (inactive) | 53.1 µM (inactive) | 17.9 µM (inactive) | 42.8 µM (inactive) | 18.6 µM (inactive) | 26.1 µM (inactive) | 9.4 µM (inactive) | 14.4 µM (inactive) | 37.8 µM (inactive) | 51.6 µM (inactive)
Brc1ccc(C2=NCSC(c3ccc(Br)cc3)=N2)cc1 | 33.2 µM (inactive) | 28.2 µM | 18.4 µM (inactive) | 27.4 µM (inactive) | 35.2 µM (inactive) | 21.2 µM (inactive) | 16.6 µM (inactive) | 30.5 µM (inactive) | 12.1 µM (inactive) | – | 37.8 µM (inactive) | – | 68.9 µM (inactive) | 34.3 µM (inactive) | 28.8 µM (inactive) | 16.7 µM (inactive) | 24.4 µM (inactive) | 37.7 µM (inactive) | 26.9 µM (inactive) | 44.1 µM (inactive)
O=C/C1=C/C2=Cc3ccccc3C=C(/C=C(/C=O)C1)C2 | > 100 µM (inactive) | 31.4 µM | 81.1 µM (inactive) | 40.5 µM (inactive) | 90.4 µM (inactive) | – | 19.4 µM (inactive) | 43.4 µM (inactive) | 44.7 µM (inactive) | > 100 µM (inactive) | 28.9 µM (inactive) | 16.2 µM (inactive) | – | 43.2 µM (inactive) | – | 34.3 µM (inactive) | 36.1 µM (inactive) | 27.7 µM (inactive) | 29 µM (inactive) | –
CC(=O)Oc1ccc(OC(Oc2ccccc2)c2ccccc2)cc1 (configuration not stated) | 32.6 µM (inactive) | 33.9 µM | 21.6 µM (inactive) | 28.1 µM (inactive) | 23.6 µM (inactive) | 30 µM (inactive) | 24.9 µM (inactive) | 17.5 µM (inactive) | 38.6 µM (inactive) | 23.7 µM (inactive) | 37.9 µM (inactive) | 27.5 µM (inactive) | 18.9 µM (inactive) | 27 µM (inactive) | 32.4 µM (inactive) | 17.5 µM (inactive) | 23.2 µM (inactive) | 19 µM (inactive) | 29.6 µM (inactive) | –
